From patent US4530932A, “4-(1H-indol-3-yl)-α-methyl-piperidine-1-ethanol derivatives” (Roussel Uclaf, priority 1982, dated 1985) come the findings set out here.

Structures can show the parent of a compound that is named as a salt. Where two headings read alike, the source gives them in different places.

One data set relates to mice. Put plainly: Acute toxicity (DL0, oral). The format is in vivo, mouse. Further details: unit not given here.
The test system of data set [1] is Rat arteries (arterial contractions, entry of calcium ions into the cells of smooth muscles). Put plainly: In vitro anticalcic activity (inhibition of potassium-depolarized, calcium-induced contractions of isolated rat arteries). In kind it is cell-based. To be noted: dose inhibiting by 50% the contractions caused by potassium ions (100 mM), 37° C., read-out: CI50 (the source's name). Here is the method:
Rat arteries decoupled in a spiral were attached to a tension collector and were maintained in tanks containing 2.5 ml of Krebs-sodium bicarbonate buffer (NaCl: 120.8 mM, KCl: 5.9 mM, MgCl2 : 1.2 mM, NaH2 PO4 : 1.2 mM, NaHCO3 : 15.5 mM, glucose: 12.6 mM), at 37° C. covered with a 95%-5% oxygen-carbon dioxide mixture. The preparations were depolarized with a buffered solution containing 100 mM of potassium ions (NaCl: 26.7 mM, KCl: 100 mM, MgCl2 : 1.2 mM, NaH2 PO4 : 1.2 mM, NaHCO3 : 15.5 mM, glucose 12.6 mM).
A volume of 25 μl of calcium chloride was added to the mixture in a manner to obtain a range of increasing concentrations of calcium ions from 0.1 to 3.0 mM and the contractions of the artery were measured to obtain a control. The operation with range of calcium ions was repeated every 15 minutes and the preparation was washed 4 times after each range. When a stable response was obtained, the operation with the range of calcium ions was effected in the presence of varying concentrations of test compounds until a stable response was obtained.
The arterial contractions depend on the entry of calcium ions into the cells of smooth muscles and are provoked by depolarization of smooth muscles by potassium ions and by action of noradrenaline freed by presynapthic level. By recommencing the operation with denerved arteries by the action of 6-hydroxy-dopamine, the specific action due to noradrenaline is suppressed.

The next data set addresses T1, β1 adrenergic receptors (Rattus norvegicus, UniProt P18090).
T1 construct: 10 cortexes removed from the brains of male rats weighing an average of 150 g; from tissue; host or cells: cerebral cortex of male rats (membranes)
Put plainly: Affinity for β1 adrenergic receptors (3H dihydroalprenolol displacement, rat brain cortex). In kind it is binding. To be noted: relative to propranolol, 37° C., pH 7.7. The procedure:
The test was inspired by that of Mohler et al [Science, Vol. 198 (1977), p. 849-851] and 10 cortexes removed from the brains of male rats weighing an average of 150 g were homogenized in 90 ml of 0.32M of sucrose. After centrifuging the homogenized mixture at 1000 g for 20 minutes at 0° C., the surnageant was centrifuged at 30,000 g for 15 minutes at 0° to 4° C. The culot was suspended in 120 ml of buffer Tris HCl 50 mM with a pH of 7.7 and was centrifuged at 30,000 g for 15 minutes at 0° to 4° C. The resulting culot was suspended in 480 ml of buffer Krebs Tris HCl (50 mM-pH of 7.7) and 2 ml of the suspension in the presence of 3H dihydroalprenolol at a concentration of 10^-9 M alone and with increasing concentrations of the test compound or with non-radioactive propranolol at a concentration of 10^-5 M to determine the non-specific fixation was incubated at 37° C. for 10 minutes.
The incubated suspensions were filtered through Whatman GF/C and the filters were washed 3 times with 5 ml of buffer Krebs Tris HCl (pH-7.7) at 0° C. The radioactivity of the filters was measured by liquid scintillation and the affinity of the test compounds for β1 -adrenergic receptors was compared using propranolol as a standard as in Test D. The results are reported in Table VI.

Data set [2] concerns cardiac rhythm troubles in guinea pigs. The experiment in a line: Antiarythmic action (K-strophanthine and adrenaline induced cardiac rhythm troubles). In kind it is in vivo, guinea pig. Conditions: Cavia porcellus, 1 h, oral 10 mg/kg, one hour before K-strophanthine and adrenaline perfusion, read-out: Percentage of protection (lengthening of the time of appearance of cardiac rhythm troubles as compared to controls). The procedure:
Male guinea pigs weighing between 450 and 500 g were tracheotomized while anesthesized by intraperitoneal administration of […] of urethane and were subjected to artifical respiration of 40 to 50 breaths of 5 ml per minute. Needles were subcutaneously implanted to register an electrocardiogram of the guinea pigs for the signal of D II derivation. The test products were orally administered and one hour later, the jugular vein of the guinea pigs were perfused with 0.5 ml per minute of a solution of 150 γ/ml of K-strophanthine and 0.5 ml per minute of a solution of 5 γ/ml of adrenaline and the number of times of the appearance of cardiac rhythm troubles was noted. The results are expressed in percentage of protection with an oral dose of 10 mg/kg of test product that is to say the percentage of lengthening of the time of appearance of cardiac rhythm troubles as compared to the controls.

For data set [3], the system named is carotidien arterial pressure in rats. The experiment in a line: Hypotensive activity (carotidien arterial pressure in anesthesized rats). The format is in vivo, rat (Wistar). To be noted: rat, intravenous. Here is the method:
The hypotensive activity was studied on male rats of the Wistar strain weighing about 300 g and anesthesized with 50 mg/kg of nembutal intraveinously. The test products were administered intraveinously by the jugular vein and the carotidien arterial pressure was measured before and after administration of the test compounds. The variations expressed in percentage of arterial pressure after administration with respect to the initial pressure is reported in Table IV.

Another data set concerns α1 adrenergic receptors. Put plainly: Affinity for α1 adrenergic receptors (3H prazosine displacement, rat brain). In kind it is binding. Conditions: relative to phentolamine (ARL=100×(CB/CX)), 25° C., pH 7.7. Here is the method: After centrifugation at 30,000 g for 15 minutes at 0° to 4° C., the culot was suspended in 240 ml of buffer Tris HCl 50 mM (pH-7.7) and the suspension was centrifuged at 30,000 g for 20 minutes at 0° to 4° C. The new culot was suspended in 480 ml of buffer Krebs Tris HCl (pH of 7.7-50 mM) and 2 ml of the suspension in the presence of 3H prazosine at a concentration of […] alone and with increasing concentrations of the test compound or with non-radioactive phentolamine at a concentration of 10^-5 M to determine the non-specific fixation was incubated at 25° C. for 30 minutes.
The incubated suspensions were filtered through Whatman FG/C and the filtered were washed with 3 times with 5 ml of buffer Krebs Tris HCl-pH of 7.7 at 0° to 4° C. The radioactivity of the filters was measured by liquid scintillation and the affinity of the test compound for α1 adrenergic receptors was compared relative to phentolamine as the reference compound by the formula
CD=concentration of phentolamine inhibiting by 50% the specific fixation of 3H prazosine.
CX=concentration of test product inhibiting by 50% the specific fixation of 3H prazosine.

[4] abbreviates: 1 min, 1 minute, read-out: % Variation of arterial pressure after administration, 1 minute.
[5] abbreviates: 5 min, 5 minutes, read-out: % Variation of arterial pressure after administration, 5 minutes.
Where [6] appears, read: 10 min, 10 minutes, read-out: % Variation of arterial pressure after administration, 10 minutes.
[7] abbreviates: 0.5 h, 30 minutes, read-out: % Variation of arterial pressure after administration, 30 minutes.

T1 sequence (P18090 whole entry): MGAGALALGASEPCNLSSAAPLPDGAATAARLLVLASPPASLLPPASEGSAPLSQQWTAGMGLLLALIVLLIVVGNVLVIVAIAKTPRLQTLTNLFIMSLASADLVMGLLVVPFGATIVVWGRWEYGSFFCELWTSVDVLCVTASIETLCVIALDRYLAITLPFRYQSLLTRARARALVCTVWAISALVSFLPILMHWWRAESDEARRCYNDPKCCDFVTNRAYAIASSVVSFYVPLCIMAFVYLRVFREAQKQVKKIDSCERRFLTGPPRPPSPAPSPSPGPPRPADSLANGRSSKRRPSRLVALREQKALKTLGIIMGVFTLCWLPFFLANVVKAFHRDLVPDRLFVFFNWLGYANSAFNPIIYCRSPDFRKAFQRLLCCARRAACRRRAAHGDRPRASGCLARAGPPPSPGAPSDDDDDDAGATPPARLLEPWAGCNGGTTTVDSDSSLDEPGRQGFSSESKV

`OC(COc1cccc2ccccc12)CN1CCC(c2c[nH]c3ccccc23)CC1` (stereo not drawn) [Example 2, 4-(1H-indol-3-yl)-α-[1-naphthyloxymethyl]-piperidine-1-ethanol]: the “DL0 (maximum dose which did not cause any deaths after 8 days)” value in the data set on mice is reported as over 1000. The IC50 in data set [1] is 3.5 µM. The “ARL in % (relative affinity for β1 adrenergic receptors)” value at β1 adrenergic receptors was found to be 0.9%.
Consider `COc1ccc(OCC(O)CN2CCC(c3c[nH]c4ccccc34)CC2)cc1` (stereo not drawn) [Example 8, 4-(1H--indol-3-yl)-α-[4-methoxyphenoxymethyl]-piperidine-1-ethanol hydrochloride], for which the change in vivo at 10 mg/kg in data set [2] amounted to 57%. Besides, in the data set on mice, the “DL0 (maximum dose which did not cause any deaths after 8 days)” value is on record as over 200. Also, the IC50 in data set [1] was found to be 4.2 µM. The change in vivo at 1 mg/kg in data set [3] (setting [4]) was -10%; in data set [3] (setting [5]), -13%; in data set [3] (setting [6]), 0%; in data set [3] (setting [7]), -13%. Also, the “% Arl (relative affinity for α1 adrenergic receptors)” value with α1 adrenergic receptors is on record as 222%.
With `Cc1ccccc1OCC(O)CN1CCC(c2c[nH]c3ccccc23)CC1` (stereo not drawn) [Example 9, 4-(1H--indol-3-yl)-α-[2-methylphenoxymethyl]-piperidine-1-ethanol hydrochloride], the change in vivo at 10 mg/kg in data set [2] worked out at 48%. Also, the “DL0 (maximum dose which did not cause any deaths after 8 days)” value in the data set on mice is over 100. For the same compound, the IC50 in data set [1] is 3.8 µM. Moreover, on β1 adrenergic receptors, the “ARL in % (relative affinity for β1 adrenergic receptors)” value was found to be 2.55%. The change in vivo at 1 mg/kg was -21% in data set [3] (setting [4]), -9% in data set [3] (setting [5]), -25% in data set [3] (setting [6]) and -20% in data set [3] (setting [7]). Besides, in the data set with α1 adrenergic receptors, the “% Arl (relative affinity for α1 adrenergic receptors)” value is recorded as 92%.
`OC(COc1ccccc1Cl)CN1CCC(c2c[nH]c3ccccc23)CC1` (stereo not drawn) [Example 10, 4-(1H--indol-3-yl)-α-[2-chlorophenoxymethyl]-piperidine-1-ethanol hydrochloride]: the change in vivo at 10 mg/kg in data set [2] was 59%. In addition, the “DL0 (maximum dose which did not cause any deaths after 8 days)” value with mice was over 100. For the same compound, the IC50 in data set [1] was 2 µM. Further, the “ARL in % (relative affinity for β1 adrenergic receptors)” value on β1 adrenergic receptors is listed as 1.95%. Moreover, the change in vivo at 1 mg/kg was -21% in data set [3] (setting [4]), -20% in data set [3] (setting [5]), -12% in data set [3] (setting [6]) and -20% in data set [3] (setting [7]).
For the compound `O=[N+]([O-])c1ccccc1OCC(O)CN1CCC(c2c[nH]c3ccccc23)CC1` (stereo not drawn) [Example 11, 4-(1H--indol-3-yl)-α-[2-nitrophenoxymethyl]-piperidine-1-ethanol hydrochloride], the change in vivo at 10 mg/kg in data set [2] is 56%. Also, the “DL0 (maximum dose which did not cause any deaths after 8 days)” value in the data set on mice turned out to be 100. In data set [1], the IC50 came out at 4.2 µM. Besides, at β1 adrenergic receptors, the “ARL in % (relative affinity for β1 adrenergic receptors)” value came to 1.2%. The “% Arl (relative affinity for α1 adrenergic receptors)” value with α1 adrenergic receptors is 77%.
Regarding `OC(COc1ccccc1F)CN1CCC(c2c[nH]c3ccccc23)CC1` (stereo not drawn) [Example 12, 4-(1H--indol-3-yl)-α-[2-fluorophenoxymethyl]-piperidine-1-ethanol hydrochloride], the change in vivo at 10 mg/kg in data set [2] was determined as 90%. Besides, in the data set on mice, the “DL0 (maximum dose which did not cause any deaths after 8 days)” value was determined as 80. Besides, the IC50 in data set [1] worked out at 3.2 µM. Further, the “ARL in % (relative affinity for β1 adrenergic receptors)” value at β1 adrenergic receptors turned out to be 1.2%. Also, the change in vivo at 1 mg/kg in data set [3] (setting [4]) was -27%; in data set [3] (setting [5]), -14%; in data set [3] (setting [6]), -27%; in data set [3] (setting [7]) it was -24%. For the same compound, in the data set with α1 adrenergic receptors, the “% Arl (relative affinity for α1 adrenergic receptors)” value amounted to 233%.
`Oc1ccccc1OCC(O)CN1CCC(c2c[nH]c3ccccc23)CC1` (stereo not drawn) [Example 13, 4-(1H--indol-3-yl)-α-[2-hydroxy-phenoxymethyl]-piperidine-1-ethanol hydrochloride]: the change in vivo at 10 mg/kg in data set [2] stood at 112%. Also, in the data set with mice, the “DL0 (maximum dose which did not cause any deaths after 8 days)” value is recorded as over 100. Further, the IC50 in data set [1] is 4.5 µM. In addition, the “ARL in % (relative affinity for β1 adrenergic receptors)” value on β1 adrenergic receptors came out at 1.1%. Also, the “% Arl (relative affinity for α1 adrenergic receptors)” value with α1 adrenergic receptors is 293%.
With `Cc1ccc(OCC(O)CN2CCC(c3c[nH]c4ccccc34)CC2)cc1` (stereo not drawn) [Example 21, 4-(1H--indol-3-yl)-α-[4-methylphenoxymethyl]-piperidine-1-ethanol hydrochloride], the change in vivo at 10 mg/kg in data set [2] was 60%. The “DL0 (maximum dose which did not cause any deaths after 8 days)” value in the data set on mice is reported as over 100. Further, the IC50 in data set [1] is 1.8 µM. For the same compound, the “% Arl (relative affinity for α1 adrenergic receptors)” value with α1 adrenergic receptors is 93%.
